These results are taken from US8455421B2, “Compositions and methods for the removal of chewing gum residues from substrates” (Expelliere Int Ltd, priority 2008, dated 2013).

This assay relates to laccase from Trametes versicolor (LTV). In words: Compatibility of laccase with ionic liquids (oxidation of catechol to 1,2-benzoquinone). The format is biochemical. The conditions noted are these: laccase 25 mg/L, sodium phosphate-citrate buffer 25 mM, pH 4.5, 22° C., 405 nm. The text has this: An important consideration in preparing ionic liquids comprising enzymes for use in the methods of the present invention is the activity of the enzyme in the presence of the ionic liquid. The compatibility of enzymes and ionic liquids can be easily determined by the skilled person by standard laboratory techniques. One suitable technique uses high throughput screening of ionic liquids and enzymes using multiple well plates. A standard enzyme-catalysed transformation may be used to analyse the activity of a particular enzyme in the presence of various ionic liquids at various concentrations. One suitable reaction is the oxidation of catechol to 1,2-benzoquinone. The progress of this reaction can be monitored visually by the dark colour of 1,2-benzoquinone and spectrally, for instance using UV-Vis spectrometry. This transformation can be represented by the following reaction scheme, in which laccase is exemplified:
Compatibility of enzymes with ionic liquid compositions was determined by high throughput screening on multiple well plates of various enzymes against various concentrations of ionic liquids in water. The oxidation of catechol to 1,2-benzoquinone was measured in aqueous sodium phosphate-citrate buffer solutions (25 mM) containing laccase (25 mgL^−1) and an ionic liquid, premixed at pH 6.0 for laccase from Agaricus bisporus (LAB) and at pH 4.5 for laccase from Trametes versicolor (LTV). The pH was verified by diluting the final reaction mixture in deionised water and measuring the pH using a pH meter. The rate of 1,2-benzoquinone formation was measured using an Agilent spectrophotometer at 405 nm and 22° C. using an extinction coefficient of 760 M^−1 cm^−1. The activity was measured over a range of ionic liquid concentrations from 0 to 99.4%, since the laccases were not soluble in the pure ionic liquids, but could be dissolved when the ionic liquids were mixed with 0.6% of buffer solution containing the enzyme.
With `CCOS(=O)(=O)[O-].C[N+](C)(C)CCCO` [[N1,1,1,3OH]^+[EtOSO3]^−], the “Concentration of ionic liquid in water that inactivates Laccase (LTV)” value (from here on “Concentration of ionic liquid”) is 30%.

Consider `CCCCC(CC)COC(=O)CC(C(=O)OCC(CC)CCCC)S(=O)(=O)[O-].CCCCn1cc[n+](C)c1` (stereo not drawn) [[bmim][docusate], 1-methyl-3-butylimidazolium docusate], for which the “Concentration of ionic liquid” value is given as 90%.

Turning to `CCCCC(CC)COC(=O)CC(C(=O)OCC(CC)CCCC)S(=O)(=O)[O-].CCCC[N+]1(C)CCCC1` (stereo not drawn) [[bmpyr]^+[docusate]^−], the “Concentration of ionic liquid” value came to 90%.

Take `CCOS(=O)(=O)[O-].CC[N+](C)(C)CCO` [[N2,1,1,2OH]^+[EtOSO3]^−]: the “Concentration of ionic liquid” value was 30%.

`CCCCC(CC)COC(=O)CC(C(=O)OCC(CC)CCCC)S(=O)(=O)[O-].CCn1cc[n+](C)c1` (stereo not drawn) [[emim][docusate]]: the “Concentration of ionic liquid” value was 90%.

Take `CCCC[N+](C)(C)CC.CCOS(=O)(=O)[O-]` [[N4,2,1,1]^+[EtOSO3]^−]: the “Concentration of ionic liquid” value was 70%.

Take `CCCCCCCC[N+](C)(C)CCCC.O=[N+]([O-])[O-]` [[N8,4,1,1]^+[NO3]^−]: the “Concentration of ionic liquid” value turned out to be 90%.

Take `CC(O)C(=O)[O-].CCCCn1cc[n+](C)c1` [[bmim]^+[CH3CH(OH)CO2]^−]: the “Concentration of ionic liquid” value is recorded as 90%.

For `CCOS(=O)(=O)[O-].CCn1cc[n+](C)c1` [[emim]^+[EtOSO3]^−], the “Concentration of ionic liquid” value is given as 30%.
